From patent US8426589B2, “Process for production of quinazoline derivative” (Shionogi & Co., Ltd., priority 2008, dated 2013)

Experiment: Stability test of the crystalline form (sealed glass vial, HPLC)
Assay type: physicochemical
Procedure: The crystalline form of the compound (IV) monohydrate was sealed in a glass vial and allowed it to stand for 20 days to determine the quality change before and after the test. Under heating at 50° C. (for 21 hr) or 80° C. (for 9 hr) were also conducted.
The quality degradation was not seen for the crystalline form of the compound (IV) monohydrate after 20 days and neither at 50° C. nor 80° C.
HPLC condition: Column Unison UK-C18 3 μm;
Mobile phase: 0.1% trifuluoroacetic acid aq. in acetnitrile;
Column temperature: 30° C.
Detector: UV spectrophotometer (254 nm)

remaining ratio (HPLC, peak at Retention Time 10.2 min) (ca. 50° C., 15 h): 99.2
remaining ratio (HPLC, peak at Retention Time 10.2 min) (ca. 50° C., 21 h): 99.1
remaining ratio (HPLC, peak at Retention Time 10.2 min) (ca. 50° C., Control (before the test)): 99.4
remaining ratio (HPLC, peak at Retention Time 10.2 min) (ca. 80° C., 3 h): 99.1
remaining ratio (HPLC, peak at Retention Time 10.2 min) (ca. 80° C., 9 h): 99.1
remaining ratio (HPLC, peak at Retention Time 10.2 min) (ca. 80° C., Control (before the test)): 99.1
quality degradation (heating at 50° C. (for 21 hr)): not seen
quality degradation (heating at 80° C. (for 9 hr)): not seen
remaining ratio (HPLC, peak at Retention Time 10.2 min) (rt (ca. 22° C.), sealed in a glass vial, 20 days): 99.3
remaining ratio (HPLC, peak at Retention Time 10.2 min) (rt (ca. 22° C.), sealed in a glass vial, Control (before the test)): 99.1
quality degradation (sealed in a glass vial, after 20 days): not seen
Compound: CC#CC(=O)c1ccc2ncnc(Nc3ccc(OCc4cccc(F)c4)c(Cl)c3)c2c1 [compound (IV) monohydrate, 4-(3-chloro-4-(3-fluorobenzyloxy)phenylamino)-6-(1-oxo-2-butyn-1-yl)quinazoline]
